Laboratory results reported in patent US7972629B2, “Product comprising a combination of milk serum apoproteins and free fatty acids” (Westgate Biological Ltd., priority 2001, dated 2011).

Experiments:
Assay type in all cases: cell-based
[1] = tested on: methicillin resistant Staphylococcus aureus (MRSA); experiment: Adhesion of MRSA to Buccal Epithelial Cells; conditions: 5 mg/ml, Diagram 11
Procedure: (§1) The basis of the technique involves exposing a standardised (known) number of yeast or bacteria to a standardised substrate (number of BEC's), allowing a 60 minute incubation period for the cells to adhere and then filtering the combined population through a 10 micron nylon mesh. The mesh will retain BEC's and those yeast or bacteria adhering to them, non-adhering yeast or bacteria will be washed through, where they may be enumerated in the filtrate and expressed as a percentage of the original population not adhering; percent adherence being the inverse of this.
Fluorescent labelling of bacteria is conducted after adhesion (on those cells in the filtrate) using fluorescent dyes such as BCECF/AM (Calbiochem Biosciences Inc., La Jolla, Calif.) and Syto 13 (Molecular Probes, Oregon, USA). Labelling methods are as described by the manufacturers of the dyes. The amount of fluorescence is measured in a fluorimeter (Fluroscan from Lab-Systems, Helsinki, Finland) and is in direct relationship to the number of bacteria present.
(§2) The following general method may be used to measure adherence of the yeast Candida albicans to BEC and the inhibition of that adherence using the formulation of milk serum apoprotein(s) as described above. The same general method is suitable for measuring inhibition of adherence of Staphylococcus aureus to BEC's and also inhibition of adherence of Streptococcus mutans, with the exception that the substrate for Streptococcus mutans, is powdered hydroxylapatite available from Merck and used as a surrogate for dental enamel.
MRSA is routinely sub-cultured on blood agar and a single colony is used to inoculate a tube of Oxoid Brain Heart Infusion Broth as described in Methods and Materials above. After 8 hours, the innoculum is used in growth and adhesion assays using the methodologies described above.
MRSA adheres to BEC's, and these are used here in a manner similar to that described for Candida albicans. […] Bovine Serum Albumin is used as a ‘protein blank’ and this material has no effect on the adhesion of MRSA to BEC's.

Streptococcus mutans = experiment: Adhesion of Streptococcus mutans to hydroxyapatite beads; conditions: 0.8 mg/ml; saliva coated hydroxyapatite; Diagram 13
From the text: as §2
In measuring inhibition of adherence of Streptococcus mutans, hydroxyapatite powder from Merck was used as a surrogate for dental enamel. The test procedure is as described in Methods and Materials above, with the following modifications: 1 ml of fresh culture, adjusted to an optical density of 0.1 at 600 nm, is added to 5 mg of saliva coated hydroxyapatite beads; allowed to adhere for 1 hour; and centrifuged at slow speed to sediment the hydroxyapatite with adhering bacteria. The number of bacteria remaining in the supernatant are that percentage of the original population not adhering and are expressed as a percentage of the original population; the inverse being […].

Candida albicans = experiment: Adhesion of Candida albicans to Buccal Epithelial Cells (adhesion assay); conditions: 1 mg/ml; yeast pre-treated 10 minutes; Diagram 8
From the text: Measurement of adhesion, and inhibition of the same, requires selection of a suitable substrate and a method of enumerating number of organisms adhering (or not) to that substrate. Most potential pathogenic organisms adhere to mucosal epithelial cells and a convenient source of a representative mucosal epithelial cell may be easily harvested from inside the cheek. Buccal epithelial cells (BEC's) are harvested by scraping the mucosal membranes in the mouth using a wooden tongue depresser as follows.
Standard wooden tongue depressers as used in clinical examination of the mouth are wrapped, in tin foil and autoclaved. […]
as §1, with “this. […]” for “this.”
Both the washed BEC's and the freshly grown washed yeast cells are counted microscopically and the concentrations adjusted such that the yeast is in the order of 1×10^5 and BEC's at 1×10^3. […]

| Compound | inhibition of adhesion of MRSA to Buccal Epithelial Cell [1] | inhibition of adhesion of MRSA to Buccal Epithelial Cell ([1]; listed as Sodium citrate) | inhibition of adhesion of Streptococcus mutans to hydroxyapatite beads (Streptococcus mutans) [%] | inhibition of adhesion of Candida albicans to Buccal Epithelial Cell (Candida albicans) [%] |
| --- | --- | --- | --- | --- |
| O=C([O-])CC(O)(CC(=O)[O-])C(=O)[O-].[Na+].[Na+].[Na+] [sodium citrate] | approximately 10% | no effect on adhesion | ~10 |  |
| Bovine Serum Albumin: protein blank in Diagrams 8, 11 and 13 | no effect |  | ~30 | 13 |
